From US9556165B2 (priority 2012, dated 2017)
Values after ≈ are worked out from the molar mass of the structure shown. Read-outs that look alike come from different tables or passages of the source.

Tests used:
Type in all cases: cell-based
[1] = tested on: P. aeruginosa 2297 (AmpC wt); assay: MIC determination, broth microdilution (CLSI); conditions: Pseudomonas aeruginosa, strain 7
K. pneumoniae 60 = assay: MIC determination, broth microdilution (CLSI); conditions: Klebsiella pneumoniae, 60, strain 2
A. baumannii ATCC15308 = assay: MIC determination, broth microdilution (CLSI); conditions: Acinetobacter baumannii, ATCC15308, strain 9
E. coli J62-TEM-3 = assay: MIC determination, broth microdilution (CLSI); conditions: Escherichia coli, J62TEM3, read-out: MIC strain 18 (E. coli J62-TEM-3), strain 18; broth microdilution
C. perfringens DSM756 = assay: microbe, parasite or virus in culture; conditions: Clostridium perfringens, DSM756, read-out: MIC strain 16 (C. perfringens DSM756), strain 16; broth microdilution
E. cloacae 34654 = assay: MIC determination, broth microdilution (CLSI); conditions: Enterobacter cloacae, 34654, strain 3
S. aureus 133 = assay: MIC determination, broth microdilution (CLSI)
S. pneumoniae 113 = assay: MIC determination, broth microdilution (CLSI); conditions: Streptococcus pneumoniae, 113, strain 13; broth microdilution; read-out: MIC strain 13 (S. pneumoniae 113)
C. freundii K21/3034 = assay: MIC determination, broth microdilution (CLSI); conditions: Citrobacter freundii, K21/3034, strain 4
Bacteria = assay: MIC determination in combination with β-lactamase inhibitors (constant 4 μg/mL)
E. coli J62 = assay: MIC determination, broth microdilution (CLSI); conditions: Escherichia coli, J62, strain 17; broth microdilution; read-out: MIC strain 17 (E. coli J62)
M. morganii 126/3048 = assay: MIC determination, broth microdilution (CLSI); conditions: Morganella morganii, 126/3048, strain 5
B. fragilis 6688 = assay: MIC determination, broth microdilution (CLSI); conditions: Bacteroides fragilis, 6688, strain 15; broth microdilution; read-out: MIC strain 15 (B. fragilis 6688)
E. coli ATCC25922 = assay: MIC determination, broth microdilution (CLSI); conditions: Escherichia coli, ATCC25922, strain 1
[2] = tested on: P. aeruginosa 2297-con (AmpC derepressed); assay: MIC determination, broth microdilution (CLSI); conditions: Pseudomonas aeruginosa, read-out: strain 8 MIC, strain 8
P. aeruginosa PAO1 = assay: MIC determination, broth microdilution (CLSI); conditions: Pseudomonas aeruginosa, PAO1, strain 6
H. influenzae ATCC 49247 = assay: MIC determination, broth microdilution (CLSI); conditions: Haemophilus influenzae, ATCC49247, strain 12; broth microdilution; read-out: MIC strain 12 (H. influenzae ATCC 49247)
S. maltophilia ICB7569 = assay: MIC determination, broth microdilution (CLSI); conditions: Stenotrophomonas maltophilia, ICB7569, strain 10
[3] = Staphylococcus aureus, 133, strain 11, read-out: strain 11 MIC
[4] = Staphylococcus aureus, 133, strain 14, broth microdilution, read-out: MIC strain 14 (S. aureus 133)

Compound | MIC [1] | MIC (K. pneumoniae 60) | MIC (A. baumannii ATCC15308) | MIC (E. coli J62-TEM-3) | MIC (C. perfringens DSM756) | MIC (E. cloacae 34654) | MIC (S. aureus 133; [3]) | MIC (S. pneumoniae 113) | MIC (C. freundii K21/3034) | MIC strain 19 (E. coli J62-TEM-3 + 4 μg/mL clavulanic acid) (Bacteria) | MIC strain 20 (E. coli J62-TEM-3 + 4 μg/mL sulbactam) (Bacteria) | MIC strain 21 (E. coli J62-TEM-3 + 4 μg/mL tazobactam) (Bacteria) | MIC (E. coli J62) | MIC (M. morganii 126/3048) | MIC (B. fragilis 6688) | MIC (E. coli ATCC25922) | MIC [2] | MIC (P. aeruginosa PAO1) | MIC (H. influenzae ATCC 49247) | MIC (S. maltophilia ICB7569) | other results
CC1(C)[C@H](NC(=O)/C(=N\OCCOc2ccc(C(=N)NC3CNNC3)cc2)c2csc(N)n2)C(=O)N1OS(=O)(=O)O [Example 92] | 8 µg/mL (≈ 13.1 µM) | 0.5 µg/mL (≈ 0.817 µM) | 4 µg/mL (≈ 6.54 µM) | 32 µg/mL (≈ 52.3 µM) | 2 µg/mL (≈ 3.27 µM) | 1 µg/mL (≈ 1.63 µM) | ≤ 0.063 µg/mL | ≤ 0.063 µg/mL | 0.5 µg/mL (≈ 0.817 µM) | 0.5 µg/mL | 0.5 µg/mL | 0.5 µg/mL | 1 µg/mL (≈ 1.63 µM) | 0.5 µg/mL (≈ 0.817 µM) | 8 µg/mL (≈ 13.1 µM) | 0.5 µg/mL (≈ 0.817 µM) | 8 µg/mL (≈ 13.1 µM) | 8 µg/mL (≈ 13.1 µM) | 0.125 µg/mL (≈ 0.204 µM) | 32 µg/mL (≈ 52.3 µM) | MIC (S. aureus 133; [4]): 8 µg/mL (≈ 13.1 µM)
CC(C)(N)CNC(=N)c1ccc(OC[C@H](O/N=C(\C(=O)N[C@@H]2C(=O)N(OS(=O)(=O)O)C2(C)C)c2csc(N)n2)C(=O)O)cc1 [Example 94, (2S)-3-{4-[N-(2-Amino-2-methylpropyl)carbamimidoyl]phenoxy}-2-({[(1Z)-1-(2-amino-1,3-thiazol-4-yl)-2-{[(3S)-2,2-dimethyl-4-oxo-1-(sulfooxy)azetidin-3-yl]amino}-2-oxoethylidene]amino}oxy)propanoic acid] | 2 µg/mL (≈ 3.05 µM) | 0.125 µg/mL (≈ 0.19 µM) | 2 µg/mL (≈ 3.05 µM) | 8 µg/mL (≈ 12.2 µM) | 0.5 µg/mL (≈ 0.761 µM) | 0.125 µg/mL (≈ 0.19 µM) | ≤ 0.063 µg/mL | 0.5 µg/mL (≈ 0.761 µM) | 0.125 µg/mL (≈ 0.19 µM) | 0.125 µg/mL | ≦0.063 mg/L | 0.125 µg/mL | 0.25 µg/mL (≈ 0.381 µM) | 0.125 µg/mL (≈ 0.19 µM) | 8 µg/mL (≈ 12.2 µM) | 0.125 µg/mL (≈ 0.19 µM) | 2 µg/mL (≈ 3.05 µM) | 2 µg/mL (≈ 3.05 µM) | ≤ 0.063 µg/mL | 4 µg/mL (≈ 6.09 µM) | MIC (S. aureus 133; [4]): 32 µg/mL (≈ 48.7 µM)
CNCCNC(=N)c1ccc(OC[C@H](O/N=C(\C(=O)N[C@@H]2C(=O)N(OS(=O)(=O)O)C2(C)C)c2csc(N)n2)C(=O)O)cc1 [Example 95, (2S)-2-({[(1Z)-1-(2-Amino-1,3-thiazol-4-yl)-2-{[(3S)-2,2-dimethyl-4-oxo-1-(sulfooxy)azetidin-3-yl]amino}-2-oxoethylidene]amino}oxy)-3-(4-{N-[2-(methylamino)ethyl]carbamimidoyl}phenoxy)propanoic acid] | 2 µg/mL (≈ 3.11 µM) | 0.125 µg/mL (≈ 0.195 µM) | 2 µg/mL (≈ 3.11 µM) | 4 µg/mL (≈ 6.22 µM) | 2 µg/mL (≈ 3.11 µM) | 0.125 µg/mL (≈ 0.195 µM) | ≤ 0.063 µg/mL | 0.5 µg/mL (≈ 0.778 µM) | 0.125 µg/mL (≈ 0.195 µM) | 0.125 µg/mL | ≦0.063 mg/L | 0.125 µg/mL | 0.125 µg/mL (≈ 0.195 µM) | ≤ 0.063 µg/mL | 8 µg/mL (≈ 12.4 µM) | 0.125 µg/mL (≈ 0.195 µM) | 2 µg/mL (≈ 3.11 µM) | 1 µg/mL (≈ 1.56 µM) | ≤ 0.063 µg/mL | 4 µg/mL (≈ 6.22 µM) | 
CC1(C)[C@H](NC(=O)/C(=N\O[C@@H](COc2ccc(C(=N)N[C@@H]3CCNC3)cc2)C(=O)O)c2csc(N)n2)C(=O)N1OS(=O)(=O)O [Example 96] | 1 µg/mL (≈ 1.53 µM) | ≤ 0.063 µg/mL | 1 µg/mL (≈ 1.53 µM) | 4 µg/mL (≈ 6.11 µM) | 1 µg/mL (≈ 1.53 µM) | ≤ 0.063 µg/mL | ≤ 0.063 µg/mL | 0.5 µg/mL (≈ 0.764 µM) | ≤ 0.063 µg/mL | ≦0.063 mg/L | ≦0.063 mg/L | ≦0.063 mg/L | 0.125 µg/mL (≈ 0.191 µM) | ≤ 0.063 µg/mL | 8 µg/mL (≈ 12.2 µM) | 0.125 µg/mL (≈ 0.191 µM) | 1 µg/mL (≈ 1.53 µM) | 1 µg/mL (≈ 1.53 µM) | ≤ 0.063 µg/mL | 4 µg/mL (≈ 6.11 µM) | MIC (S. aureus 133; [4]): 32 µg/mL (≈ 48.9 µM)
CC1(C)[C@H](NC(=O)/C(=N\O[C@@H](COc2ccc(C(=N)NC3CCCNC3)cc2)C(=O)O)c2csc(N)n2)C(=O)N1OS(=O)(=O)O (stereo partly drawn) [Example 97, (2S)-2-({[(1Z)-1-(2-Amino-1,3-thiazol-4-yl)-2-{[(3S)-2,2-dimethyl-4-oxo-1-(sulfooxy)azetidin-3-yl]amino}-2-oxoethylidene]amino}oxy)-3-{4-[N-(piperidin-3-yl)carbamimidoyl]phenoxy}propanoic acid] | 1 µg/mL (≈ 1.5 µM) | 0.125 µg/mL (≈ 0.187 µM) | 1 µg/mL (≈ 1.5 µM) | 4 µg/mL (≈ 5.98 µM) | 0.5 µg/mL (≈ 0.748 µM) | 0.125 µg/mL (≈ 0.187 µM) | ≤ 0.063 µg/mL | 0.5 µg/mL (≈ 0.748 µM) | ≤ 0.063 µg/mL | ≦0.063 mg/L | ≦0.063 mg/L | ≦0.063 mg/L | 0.125 µg/mL (≈ 0.187 µM) | ≤ 0.063 µg/mL | 4 µg/mL (≈ 5.98 µM) | ≤ 0.063 µg/mL | 1 µg/mL (≈ 1.5 µM) | 1 µg/mL (≈ 1.5 µM) | ≤ 0.063 µg/mL | 4 µg/mL (≈ 5.98 µM) | MIC (S. aureus 133; [4]): 32 µg/mL (≈ 47.9 µM)
CC1(C)[C@H](NC(=O)/C(=N\O[C@@H](COc2ccc(C(=N)NCC3CCCN3)cc2)C(=O)O)c2csc(N)n2)C(=O)N1OS(=O)(=O)O (stereo partly drawn) [Example 98, (2S)-2-({[(1Z)-1-(2-Amino-1,3-thiazol-4-yl)-2-{[(3S)-2,2-dimethyl-4-oxo-1-(sulfooxy)-azetidin-3-yl]amino}-2-oxoethylidene]amino}oxy)-3-{4-[N-(pyrrolidin-2-ylmethyl)carbamimidoyl]phenoxy}propanoic acid] | 2 µg/mL (≈ 2.99 µM) | 0.125 µg/mL (≈ 0.187 µM) | 1 µg/mL (≈ 1.5 µM) | 8 µg/mL (≈ 12 µM) | 2 µg/mL (≈ 2.99 µM) | 0.125 µg/mL (≈ 0.187 µM) | ≤ 0.063 µg/mL | 0.5 µg/mL (≈ 0.748 µM) | 0.125 µg/mL (≈ 0.187 µM) | 0.125 µg/mL | 0.125 µg/mL | 0.125 µg/mL | 0.125 µg/mL (≈ 0.187 µM) | ≤ 0.063 µg/mL | 8 µg/mL (≈ 12 µM) | 0.125 µg/mL (≈ 0.187 µM) | 2 µg/mL (≈ 2.99 µM) | 1 µg/mL (≈ 1.5 µM) | ≤ 0.063 µg/mL | 4 µg/mL (≈ 5.98 µM) | MIC (S. aureus 133; [4]): 32 µg/mL (≈ 47.9 µM)
CC1(C)[C@H](NC(=O)/C(=N\O[C@@H](COc2ccc(C(=N)NCC3CCCCN3)cc2)C(=O)O)c2csc(N)n2)C(=O)N1OS(=O)(=O)O (stereo partly drawn) [Example 99, (2S)-2-({[(1Z)-1-(2-Amino-1,3-thiazol-4-yl)-2-{[(3S)-2,2-dimethyl-4-oxo-1-(sulfooxy)-azetidin-3-yl]amino}-2-oxoethylidene]amino}oxy)-3-{4-[N-(piperidin-2-ylmethyl)carbamimidoyl]phenoxy}propanoic acid] | 2 µg/mL (≈ 2.93 µM) | 0.25 µg/mL (≈ 0.366 µM) | 2 µg/mL (≈ 2.93 µM) | 4 µg/mL (≈ 5.86 µM) | 0.5 µg/mL (≈ 0.732 µM) | 0.25 µg/mL (≈ 0.366 µM) | ≤ 0.063 µg/mL | 0.5 µg/mL (≈ 0.732 µM) | 0.125 µg/mL (≈ 0.183 µM) | 0.125 µg/mL | 0.125 µg/mL | 0.25 µg/mL | 0.25 µg/mL (≈ 0.366 µM) | ≤ 0.063 µg/mL | 8 µg/mL (≈ 11.7 µM) | 0.125 µg/mL (≈ 0.183 µM) | 2 µg/mL (≈ 2.93 µM) | 2 µg/mL (≈ 2.93 µM) | ≤ 0.063 µg/mL | 4 µg/mL (≈ 5.86 µM) | MIC (S. aureus 133; [4]): 32 µg/mL (≈ 46.9 µM)
CN1CC[C@H](NC(=N)c2ccc(OC[C@H](O/N=C(\C(=O)N[C@@H]3C(=O)N(OS(=O)(=O)O)C3(C)C)c3csc(N)n3)C(=O)O)cc2)C1 [Example 101] | 4 µg/mL (≈ 5.98 µM) | 0.125 µg/mL (≈ 0.187 µM) | 4 µg/mL (≈ 5.98 µM) | 8 µg/mL (≈ 12 µM) | 2 µg/mL (≈ 2.99 µM) | 0.125 µg/mL (≈ 0.187 µM) | ≤ 0.063 µg/mL | 0.5 µg/mL (≈ 0.748 µM) | 0.125 µg/mL (≈ 0.187 µM) | ≦0.063 mg/L | ≦0.063 mg/L | 0.125 µg/mL | 0.125 µg/mL (≈ 0.187 µM) | 0.125 µg/mL (≈ 0.187 µM) | 8 µg/mL (≈ 12 µM) | 0.125 µg/mL (≈ 0.187 µM) | 2 µg/mL (≈ 2.99 µM) | 2 µg/mL (≈ 2.99 µM) | ≤ 0.063 µg/mL | 8 µg/mL (≈ 12 µM) | 
